# Test results taken from PMC7241010, “In Vivo and In Vitro Study of N-Methyltaurine on Pharmacokinetics and Antimuscle Atrophic Effects in Mice” (ACS Omega, 2020).
# Read-outs that look alike come from different tables or passages of the source.
# Columns and labels:
# [1] = Pharmacokinetics and oral bioavailability of NMT in mice (plasma NMT by HPLC); assay type: in vivo, mouse; settings: for AUC(0-t): read-out: AUC0–180min (converted)
# Protocol: To study the pharmacokinetic parameters and the oral bioavailability of NMT, we tested the serum concentration of NMT after p.o. or i.v. injection of NMT (Figure 2). Biological fluid was sampled following the injection of NMT. […] Oral bioavailability is defined as the fraction of the dose that reaches the systemic circulation. Blood samples were collected at 10 to 180 min after NMT administration and then examined by HPLC.
# All experimental procedures were approved by the Institutional Animal Care and Use Committee of the Fukui Prefectural University. Three-month-old male ICR mice were used for this study. […] Blood samples were collected from the facial vein (for i.v. injection) or the tail vein (for p.o. injection) at 10, 20, 30, 60, 120, and 180 min after NMT administration.
# (§1) Plasma samples were mixed with an equal volume of 5% sulfosalicylic acid (SSA) containing the internal standard chemical sarcosine (0.1 mM). Tissues in 10 volumes of 5% SSA containing an internal control were homogenized using a Polytron homogenizer. Samples were centrifuged, and the supernatant was filtered with 0.45 μm filters and then neutralized with NaHCO3.
# (§2) NMT was measured by HPLC after derivatization with 9-fluorenylmethyloxycarbonyl chloride (FMOC-Cl) according to a previous report with brief modification.[49] First, equal volumes of o-phthalaldehyde (OPA) reagent (5 mM OPA, 23 mM 3-mercaptopropionic acid, 10 mM boric acid, pH 10.4) was added to acid-extracted samples and incubated at room temperature for 1 min for the derivatization of the primary amine. Then, 1 volume of FMOC-Cl reagent (3 mM FMOC-Cl in acetone) was added to the mixture and incubated for additional 1 min for the derivatization of residual secondary amine. After dilution with HPLC mobile phase buffer A (10 mM potassium phosphate, pH 7.3), samples were subjected to HPLC analysis performed on an UltiMate 3000 rapid separation binary system (Thermo Fisher, USA) or Prominence HPLC system (Shimadzu, Japan). Samples were injected into a ZORBAX Eclipse Plus C18 column (Agilent, USA). Mobile phases A (10 mM potassium phosphate, pH 7.3) and B (acetonitrile) were used. The column oven temperature was set at 40 °C. The flow rate of the mobile phase was 1.5 mL/min. The gradient of the mobile phase was increased from 2 to 88% buffer B (from 0.84 to 11.9 min) and was kept at 100% buffer B for 3 min followed by 2% for 15 min. N-Methyltaurine derivatized by FMOC-Cl was monitored by a fluorescence detector (excitation: 266 nm, emission: 305 nm) and diode array detector (Shimadzu).
# Pharmacokinetic parameters were calculated by using R (Package “PK”, ver. 1.3-4).
# [2] = Tissue distribution of NMT after 0.5% NMT in drinking water; assay type: in vivo, mouse; settings: mice
# Protocol: To evaluate the tissue distribution of NMT in mice after administration in the drinking water, the concentration of NMT was measured in tissues and serum 4 days after the original administration (Figure 3). The tissue concentration of NMT was analyzed by HPLC. NMT was widely distributed in the tissues of mice, including in brain, liver, kidney, heart, and muscles. The tissue concentration of NMT was much higher than that of serum concentration, with one exception, the skin (Figure 3).
# To measure NMT in the serum and tissues after long-term treatment with NMT, NMT dissolved in the drinking water (0.5%) was given to mice for 4 days. After that, mice were anesthetized by medetomidine (0.3 mg/kg body weight; FUJIFILM Wako Pure Chemical), butorphanol (5 mg/kg body weight; FUJIFILM Wako Pure Chemical), and midazolam (4 mg/kg body weight; FUJIFILM Wako Pure Chemical), and then blood and tissues were collected. Tissues were kept in −80 °C until use.
# as §1, §2
# C2C12 myotubes [3] = experiment: Dex-induced myotube atrophy in C2C12 cells (myotube diameter); assay type: cell-based, mouse; settings: 24 h
# Protocol: To explore the beneficial effect of NMT against skeletal muscle atrophy in mice, we investigated its protective effect using cultures of C2C12 myotubes.
# C2C12 mouse myoblasts were purchased from ATCC (American Type Culture Collection) and were cultured in DMEM containing 10% fetal bovine serum. Cell lines were not tested for mycoplasma contamination in the present study. To induce differentiation of the myotubes, cells were cultured in DMEM containing 2% fetal bovine serum for 1 week. After differentiation, cells were treated with Dex (final concentration, 50 μM) with or without NMT.[28] Myotube diameter was measured from microscopic images taken after treatment with Dex.
# Atrogin-1 and MuRF1 = experiment: Gene expression of Atrogin-1 and MuRF1 in C2C12 myotubes (qRT-PCR); assay type: cell-based, mouse; settings: C2C12 myotubes treated with Dex and NMT
# Protocol: We tested whether these ubiquitin ligases are involved in the suppressive effect of NMT against muscle atrophy in the C2C12 myotube.
# Total RNA was isolated from C2C12 cells using Sepasol Super G (Nacalai Tesque, Kyoto, Japan), and cDNA was generated by using ReverTra Ace (Toyobo, Osaka, Japan). Quantitative RT-PCR analysis was performed using Applied Biosystems StepOne (Applied Biosystems) with THUNDERBIRD SYBR qPCR Mix (Toyobo). The primers used are as follows: Atrogin-1 forward: 5′-TTCAG CAGCC TGAAC TACGA-3′, reverse: 5′-AGTAT CCATG GCGCT CCTTC-3′. MuRF1 forward: 5′-GCGTG ACCAC AGAGG GTAAA-3′, reverse: 5′-CTCTG CGTCC AGAGC GTG-3′. GAPDH forward: 5′-GCCGG TGCTG AGTAT GTCGT-3′, reverse: 5′-CCCTT TTGGC TCCAC CCTT-3′.
# ICR mice = experiment: Dexamethasone-induced muscle atrophy model in ICR mice; assay type: in vivo, mouse
# Protocol: Next, to investigate the effect of NMT on skeletal muscle atrophy, a mouse atrophy model induced by Dex was employed[41] (Figure 5). Mice were administered with Dex daily (i.p., 10 mg/kg body weight) and maintained on drinking water either with no addition or containing 0.5% NMT.
# To induce muscle atrophy in ICR mice, Dex was suspended in saline (10 mg/mL), and the mixture was intraperitoneally (i.p.) injected at 10 mg/kg body weight once a day for 10 days.[41] Body weight was monitored daily. Then, mice were euthanized by cervical dislocation, and muscles were isolated from the mice. The isolated tissue was immediately froze in liquid nitrogen and stored at −80 °C.
# [4] = tested on: taurine uptake in brain slices; settings: cited from earlier work
# C2C12 myotubes [5] = settings: in vitro exposure to dexamethasone; cited from earlier work
# [6] = rats; cited from earlier work
# taurine transport system = settings: human intestine cells, cited from earlier work
# [7] = drinking water containing 0.5% NMT for 4 days, average
# [8] = Dex i.p. 10 mg/kg daily for 10 days, 0.5% NMT in drinking water
compound,measurement,setting,value
"CNCCS(=O)(=O)O [NMT, N-Methyltaurine]",AUC(0-t),"[1]; male, ICR, mouse, iv, i.v. 0.5 mg/kg BW, plasma",900 ng·h/mL
same,bioavailability,"[1]; male, ICR, mouse, plasma, oral, 0.5 mg/kg, p.o. 0.5 mg/kg BW vs i.v. 0.5 mg/kg BW, read-out: bioavailability",96%
same,bioavailability,"[1]; male, ICR, mouse, plasma, oral, 5 mg/kg BW, p.o. 5 mg/kg BW vs i.v. 0.5 mg/kg BW, read-out: bioavailability",58%
same,AUC(0-t),"[1]; male, ICR, mouse, po, p.o. 0.5 mg/kg BW, plasma",865 ng·h/mL
same,AUC(0-t),"[1]; male, ICR, mouse, po, p.o. 5 mg/kg BW, plasma",5250 ng·h/mL
same,bioavailability,"[1]; p.o. 0.5 mg/kg BW vs i.v. 0.5 mg/kg BW, 0.5 mg/kg",96.1%
same,Kp at 4 days,"[2]; ICR, mouse, 0.5 % in drinking water, oral NMT, various tissues, skin is an exception, read-out: tissue NMT relative to serum concentration of NMT",10 to 100
same,"Tissue NMT, brain",[2]; [7],0.84 nmol/g wet
same,"Tissue NMT, heart",[2]; [7],3.5 nmol/g wet
same,"Tissue NMT, kidney",[2]; [7],0.39 nmol/g wet
same,"Tissue NMT, liver",[2]; [7],0.50 nmol/g wet
same,"Tissue NMT, muscle",[2]; [7],0.17 nmol/g wet
same,"Tissue NMT, serum",[2]; [7],0.033 nmol/g wet
same,"Tissue NMT, skin",[2]; [7],0.019 nmol/g wet
same,effect on Dex-induced decline in myotube width,C2C12 myotubes [3]; Dex 50 μM + NMT 20 mM,prevented the decline in myotube width
same,effect on Dex-induced Atrogin-1 and MuRF1 gene expression,Atrogin-1 and MuRF1,did not act by downregulating those genes
same,effect on Dex-induced loss in wet weight of gastrocnemius muscle,ICR mice; [8],attenuated Dex-induced loss in wet weight
same,effect on Dex-induced loss in wet weight of tibial anterior muscle,ICR mice; [8],attenuated Dex-induced loss in wet weight
same,effect on Dex-induced body weight loss,"ICR mice; Dex i.p. 10 mg/kg daily, 0.5% NMT in drinking water",attenuated body weight loss
same,effect on taurine uptake,[4],inhibits taurine uptake
NCCS(=O)(=O)O [taurine],effect on Dex-induced muscle atrophy in vitro,C2C12 myotubes [5],attenuates muscle atrophy
same,oral bioavailability,[6],~100%
same,concentration at which transport activity is almost saturated,taurine transport system,~50 µM
same,Km,taurine transport system; read-out: Km of taurine transport,4.8 µM
"C[C@@H]1C[C@H]2[C@@H]3CCC4=CC(=O)C=C[C@]4(C)[C@@]3(F)[C@@H](O)C[C@]2(C)[C@@]1(O)C(=O)CO [Dex, dexamethasone, reference compound]",effect on myotube width,C2C12 myotubes [3]; Dex 50 μM,reduced the width of the myotube
same,effect on body weight,ICR mice; Dex i.p. 10 mg/kg body weight daily,caused a continuous loss of body weight
